Reference: US9221807B2, “Substituted pyridones and pyrazinones and their use as inhibitors of neutrophil elastase activity” (Boehringer Ingelheim International GmbH, priority 2014, dated 2015)
pIC50: −log10 of the molar value.

Target: T1, Human neutrophil elastase (Homo sapiens, UniProt P08246)
T1 construct: purchased Calbiochem 324681
T1 sequence (P08246 30-267): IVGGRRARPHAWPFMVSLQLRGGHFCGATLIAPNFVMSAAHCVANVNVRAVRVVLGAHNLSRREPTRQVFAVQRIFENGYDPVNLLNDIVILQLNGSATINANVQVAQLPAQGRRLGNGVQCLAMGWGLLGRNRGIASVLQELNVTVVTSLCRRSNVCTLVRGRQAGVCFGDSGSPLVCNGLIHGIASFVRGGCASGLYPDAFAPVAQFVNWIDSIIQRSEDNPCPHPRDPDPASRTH
Assay: Human Neutrophil Elastase Assay
Type: biochemical
Conditions: substrate MeOSuc-Ala-Ala-Pro-Val-AMC 250 μM, pH 7.5, fluorescence
Description: Human Neutrophil Elastase Assay
Materials: Human neutrophil elastase was purchased from Calbiochem (Cat. No.: 324681) and the elastase substrate MeOSuc-Ala-Ala-Pro-Val-AMC from Bachem (Cat. No.: 1-1270). All other materials were of the highest grade commercially available. The following buffers were used: Compound buffer: 100 mM Tris, 500 mM NaCl, adjusted to pH 7.5; Assay buffer: 100 mM Tris, 500 mM NaCl, adjusted to pH 7.5, containing 0.01% BSA. Assay conditions: Test compounds were prediluted in DMSO and subsequently in compound buffer (5% DMSO final). 5 μL of these compound dilutions were mixed with 10 μl Neutrophil elastase (9 ng/ml in assay buffer) in a black 384 well OptiPlate (Perkin Elmer, Cat No.: 6007270) and incubated for 15 min at room temperature. Subsequently 10 μL substrate solution in assay buffer were added (250 μM final concentration) and the plates were incubated for 60 min at room temperature. After inactivation of the enzyme, fluorescence intensities were measured at 380 nm excitation and 460 nm emission wavelengths. Each plate contains wells with a high value control (DMSO+enzyme+substrate) and wells with a low value control (DMSO+inactivated enzyme+substrate). IC50 values were estimated using a sigmoidal concentration response curve with variable slope. Means of low values were taken as 0%, means of high values as 100%.

pIC50	SMILES
7.43	CC(=O)N=S(C)(=O)c1ccc(CNC(=O)c2cc(-c3ccnn3C)c(C)n(-c3cccc(C(F)(F)F)c3)c2=O)cc1 (centres unmarked) [Example 9.1]
8.35	Cc1c(-c2ccnn2C)cc(C(=O)NCc2ccc(S(C)(=O)=NC#N)cc2)c(=O)n1-c1cccc(C(F)(F)F)c1 (single isomer, unassigned) [Example 3A]
7.36	COCCN=S(C)(=N)c1ccc(CNC(=O)c2cc(-c3ccnn3C)c(C)n(-c3cccc(C(F)(F)F)c3)c2=O)cc1 (centres unmarked) [Example 15, N-[[4-[N-(2-Methoxyethyl)-S-methyl-sulfonodiimidoyl]phenyl]methyl]-6-methyl-5-(2-methylpyrazol-3-yl)-2-oxo-1-[3-(trifluoromethyl)phenyl]pyridine-3-carboxamide]
8.92	Cc1c(-c2ccnn2C)cc(C(=O)NCc2ccc(/S(C)=N/C#N)cc2)c(=O)n1-c1cccc(C(F)(F)F)c1 (centres unmarked) [Example 1, N-[[4-(N-Cyano-S-methyl-sulfinimidoyl)phenyl]methyl]-6-methyl-5-(2-methyl-pyrazol-3-yl)-2-oxo-1-[3-(trifluoromethyl)phenyl]pyridine-3-carboxamide]
6.76	Cc1c(-c2ccnn2C)cc(C(=O)NCc2ccc(S(C)(=N)=O)cc2)c(=O)n1-c1cccc(C(F)(F)F)c1 (racemic) [Example 4, 6-Methyl-5-(2-methylpyrazol-3-yl)-N-[[4-(methylsulfonimidoyl)phenyl]methyl]-2-oxo-1-[3-(trifluoromethyl)phenyl]pyridine-3-carboxamide]
> 9.00	Cc1c(-c2ccnn2-c2ccc(C#N)cc2)nc(C(=O)NCc2ccc(S(C)(=O)=NC#N)cc2)c(=O)n1-c1cccc(C(F)(F)F)c1 (single isomer, unassigned) [Example 17, N-[[4-(N-Cyano-S-methyl-sulfonimidoyl)phenyl]methyl]-6-[2-(4-cyanophenyl)pyrazol-3-yl]-5-methyl-3-oxo-4-[3-(trifluoromethyl)phenyl]pyrazine-2-carboxamide]
7.39	CN=S(C)(=O)c1ccc(CNC(=O)c2cc(-c3ccnn3C)c(C)n(-c3cccc(C(F)(F)F)c3)c2=O)cc1 (centres unmarked) [Example 11, N-[[4-(N,S-Dimethylsulfonimidoyl)phenyl]methyl]-6-methyl-5-(2-methylpyrazol-3-yl)-2-oxo-1-[3-(trifluoromethyl)phenyl]pyridine-3-carboxamide]
7.46	Cc1nc(N=S(C)(=O)c2ccc(CNC(=O)c3cc(-c4ccnn4C)c(C)n(-c4cccc(C(F)(F)F)c4)c3=O)cc2)oc1C (centres unmarked) [Example 7, N-[[4-[N-(4,5-Dimethyloxazol-2-yl)-S-methyl-sulfonimidoyl]phenyl]methyl]-6-methyl-5-(2-methylpyrazol-3-yl)-2-oxo-1-[3-(trifluoromethyl)phenyl]pyridine-3-carboxamide]
7.30	CNC(=O)N=S(C)(=O)c1ccc(CNC(=O)c2cc(-c3ccnn3C)c(C)n(-c3cccc(C(F)(F)F)c3)c2=O)cc1 (centres unmarked) [Example 10, 6-Methyl-N-[[4-[S-methyl-N-(methylcarbamoyl)sulfonimidoyl]phenyl]methyl]-5-(2-methylpyrazol-3-yl)-2-oxo-1-[3-(trifluoromethyl)phenyl]pyridine-3-carboxamide]
7.19	Cc1c(-c2ccnn2C)cc(C(=O)NCc2ccc(S(C)(=O)=N/C(N)=N/O)cc2)c(=O)n1-c1cccc(C(F)(F)F)c1 (centres unmarked) [Example 8, N-[[4-[N—[N-Hydroxycarbamimidoyl]-S-methyl-sulfonimidoyl]phenyl]methyl]-6-methyl-5-(2-methylpyrazol-3-yl)-2-oxo-1-[3-(trifluoromethyl)phenyl]pyridine-3-carboxamide]
8.59	Cc1c(-c2ccnn2C)cc(C(=O)NCc2ccc(S(C)(=O)=NC#N)cc2)c(=O)n1-c1cccc(C(F)(F)F)c1 (racemic) [Example 3, N-[[4-(N-Cyano-S-methyl-sulfonimidoyl)phenyl]methyl]-6-methyl-5-(2-methylpyrazol-3-yl)-2-oxo-1-[3-(trifluoromethyl)phenyl]pyridine-3-carboxamide]
7.38	Cc1c(-c2ccnn2C)cc(C(=O)NCc2ccc(S(C)=N)cc2)c(=O)n1-c1cccc(C(F)(F)F)c1 (centres unmarked) [Example 2, 6-Methyl-5-(2-methylpyrazol-3-yl)-N-[[4-(methylsulfinimidoyl)phenyl]methyl]-2-oxo-1-[3-(trifluoromethyl)phenyl]pyridine-3-carboxamide]
7.03	Cc1c(-c2ccnn2C)cc(C(=O)NCc2ccc(S(C)(=N)=O)cc2)c(=O)n1-c1cccc(C(F)(F)F)c1 (single isomer, unassigned) [Example 4A]
7.90	Cc1c(-c2ccnn2C)cc(C(=O)NCc2ccc(S(C)(=O)=NS(C)(=O)=O)cc2)c(=O)n1-c1cccc(C(F)(F)F)c1 (centres unmarked) [Example 9.3]
8.64	Cc1c(-c2ccnn2C)cc(C(=O)NCc2ccc(S(C)(=O)=NC#N)cc2)c(=O)n1-c1cccc(C(F)(F)F)c1 (single isomer, unassigned) [Example 3B]
7.14	Cc1c(-c2ccnn2C)cc(C(=O)NCc2ccc(S(C)(=O)=NC(=O)N3CCOCC3)cc2)c(=O)n1-c1cccc(C(F)(F)F)c1 (centres unmarked) [Example 9.2]
7.90	CN=S(=O)(c1ccc(CNC(=O)c2cc(-c3ccnn3C)c(C)n(-c3cccc(C(F)(F)F)c3)c2=O)cc1)N(C)OC (centres unmarked) [Example 1.3]
7.34	Cc1c(-c2ccnn2C)cc(C(=O)NCc2ccc(S(C)(=O)=NC(N)=O)cc2)c(=O)n1-c1cccc(C(F)(F)F)c1 (centres unmarked) [Example 6, N-[[4-(N-Carbamoyl-S-methyl-sulfonimidoyl)phenyl]methyl]-6-methyl-5-(2-methyl-pyrazol-3-yl)-2-oxo-1-[3-(trifluoromethyl)phenyl]pyridine-3-carboxamide]
7.55	CN=S(=O)(c1ccc(CNC(=O)c2cc(-c3ccnn3C)c(C)n(-c3cccc(C(F)(F)F)c3)c2=O)cc1)N1CCCCC1 (stereo not drawn) [Example 13, 6-Methyl-N-[[4-[N-methyl-S-(1-piperidyl)sulfonimidoyl]phenyl]methyl]-5-(2-methyl-pyrazol-3-yl)-2-oxo-1-[3-(trifluoromethyl)phenyl]pyridine-3-carboxamide]
7.94	CN=S(=O)(c1ccc(CNC(=O)c2cc(-c3ccnn3C)c(C)n(-c3cccc(C(F)(F)F)c3)c2=O)cc1)N(C)C (centres unmarked) [Example 1.1]
7.45	Cc1c(-c2ccnn2C)cc(C(=O)NCc2ccc(/S(C)=N/C(N)=O)cc2)c(=O)n1-c1cccc(C(F)(F)F)c1 (centres unmarked) [Example 5, N-[[4-(N-Carbamoyl-S-methyl-sulfinimidoyl)phenyl]methyl]-6-methyl-5-(2-methyl-pyrazol-3-yl)-2-oxo-1-[3-(trifluoromethyl)phenyl]pyridine-3-carboxamide]
8.17	Cc1c(-c2ccnn2C)cc(C(=O)NCc2ccc(S(C)(=N)=NC#N)cc2)c(=O)n1-c1cccc(C(F)(F)F)c1 (centres unmarked) [Example 15.2]
8.30	Cc1c(-c2ccnn2C)cc(C(=O)NCc2ccc(S(C)(=O)=N[N+](=O)[O-])cc2)c(=O)n1-c1cccc(C(F)(F)F)c1 (centres unmarked) [Example 12, 6-Methyl-N-[[4-(S-methyl-N-nitro-sulfonimidoyl)phenyl]methyl]-5-(2-methylpyrazol-3-yl)-2-oxo-1-[3-(trifluoromethyl)phenyl]pyridine-3-carboxamide]
7.38	Cc1c(-c2ccnn2C)cc(C(=O)NCc2ccc(S(C)(=N)=O)cc2)c(=O)n1-c1cccc(C(F)(F)F)c1 (single isomer, unassigned) [Example 4B]
7.75	COC(=O)N=S(C)(=O)c1ccc(CNC(=O)c2cc(-c3ccnn3C)c(C)n(-c3cccc(C(F)(F)F)c3)c2=O)cc1 (centres unmarked) [Example 9, Methyl N-[Methyl-[4-[[[6-methyl-5-(2-methylpyrazol-3-yl)-2-oxo-1-[3-(trifluoromethyl)phenyl]pyridine-3-carbonyl]amino]methyl]phenyl]-oxo-λ^6-sulfanylidene]-carbamate]
7.05	CN=S(C)(=N)c1ccc(CNC(=O)c2cc(-c3ccnn3C)c(C)n(-c3cccc(C(F)(F)F)c3)c2=O)cc1 (centres unmarked) [Example 15.1]
7.95	Cc1c(-c2ccnn2C)nc(C(=O)NCc2ccc(S(C)(=O)=NC#N)cc2)c(=O)n1-c1cccc(C(F)(F)F)c1 (single isomer, unassigned) [Example 16, N-[[4-(N-Cyano-S-methyl-sulfonimidoyl)phenyl]methyl]-5-methyl-6-(2-methylpyrazol-3-yl)-3-oxo-4-[3-(trifluoromethyl)phenyl]pyrazine-2-carboxamide]
7.84	CN=S(=O)(NCc1ccccc1)c1ccc(CNC(=O)c2cc(-c3ccnn3C)c(C)n(-c3cccc(C(F)(F)F)c3)c2=O)cc1 (centres unmarked) [Example 1.2]
6.58	Cc1c(-c2ccnn2C)cc(C(=O)NCc2ccc(S(C)(=N)=N)cc2)c(=O)n1-c1cccc(C(F)(F)F)c1 [Example 14, 6-Methyl-5-(2-methylpyrazol-3-yl)-N-[[4-(methylsulfonodiimidoyl)phenyl]methyl]-2-oxo-1-[3-(trifluoromethyl)phenyl]pyridine-3-carboxamide]
